Assay results: US12613239B2, “Live imaging system to visualize the retro-transcribed viral DNA genome” (priority 2019, dated 2026)
Like-named read-outs stand apart in the source and are kept apart here.

How the values were obtained:
[1] = system: HIV-1 ANCH3 (HIV-1ΔEnvINHAΔNef ANCH3/VSV-G); type: cell-based
[2] = system: HIV-1 CA and IN association; type: cell-based; settings: 24 h
[3] = system: HIV-1 viral RNA; type: cell-based; settings: 24 h
[4] = target: viral CA (Human immunodeficiency virus type 1 group M subtype B, UniProt P04591); settings: cited from earlier work
[5] = system: lentiviral particles pseudotyped with Spike from SARS-CoV2 (S-LV-ANCH3); type: cell-based

SMILES: Cc1ccnc2c1NC(=O)c1cccnc1N2C1CC1 [NEV, nevirapine]
- Intranuclear spots counted in 20 cells [1]: 0 detections

SMILES: Cc1[nH]c2ccccc2c1CC(=O)N[C@@H](Cc1ccccc1)C(=O)N(C)c1ccccc1 [PF74]
- Association between CA and IN ([2]; high dose of PF74 (10 μM)): lost
- Association between CA and IN ([2]; low dose of PF74 (1.25 μM)): preserved to levels comparable to samples without drug at 6 h post infection
- Viral RNA of the incoming cores ([3]; high dose of PF74 (10 μM)): completely degraded
- Viral RNA of the incoming cores ([3]; low dose of PF74 (1.25 μM)): not completely degraded
- Detection of viral DNA inside the nucleus [1]: detect the viral DNA inside the nucleus only in the absence of PF74
- Viral nuclear entry [1]: blocked viral nuclear entry
- Mechanism at high concentration [4]: accelerates uncoating and blocks reverse transcription
- Mechanism at low concentration [4]: directly competes with the binding of host viral partners

SMILES: CCN(CCO)CCCC(C)Nc1ccnc2cc(Cl)ccc12 (stereo not shown) [hydroxychloroquine]
- Viral entry of S-LV-ANCH3 [5]: inhibit viral entry
